Measured values reported in US20020169166A1, “Benzimidazoles that are useful in treating sexual dysfunction” (priority 2001, published 2002).

Columns and labels:
Wistar rats = assay: Rat Penile Erection Model; format: in vivo; details: for Induced Penile Erection in Rats, Incidence (%): subcutaneous, animals with 1 or more erections in 60 minutes; for induced penile erections in rats (significance): subcutaneous administration, doses of 0.01 μmol/kg to 0.10 μmol/kg
Experimental: Wistar rats were used as a primary animal model to study penile erection in vivo. All experiments were carried out between 9:00 AM and 3:00 PM in a diffusely illuminated testing room with a red light. Animals were weighed and allowed to adapt to the testing room for 60 minutes before the beginning of experiments. Rats were placed individually in a transparent cage (20×30×30 cm) after drug injection.
(L)-Ascorbic acid in saline (1 mg/mL) was used as vehicle. Twelve animals were used per dose.

Male Fitch ferrets = tested on: Male Fitch ferrets; design: species or system ferret; details: in vivo, sc
Experimental: Male Fitch ferrets (body weights 1.0-1.5 kg) were obtained from Marshall Farms. Ferrets were fasted overnight before experimentation. Apomorphine or a compound of the present invention was administrated subcutaneously; animals were placed individually in observation cages and the drug-induced emesis and signs of nausea were determined (by direct observation) for a period of 90 minutes following drug injection. Nausea was characterized by behaviors such as licking, gagging, backing, head burying, and intense abdominal grooming. Emesis was usually preceded by these behaviors and was characterized by rhythmic abdominal contractions which were associated with vomiting or retching movement.
Sterile saline was used as vehicle. Six animals were used per dose.

Clc1ccccc1N1CCN(Cc2nc3ccccc3[nH]2)CC1 [Example 13, 2-{[4-(2-chlorophenyl)piperazin-1-yl]methyl}-1H-benzimidazole]
melting point: 245 to 246 °C

Oc1ccccc1N1CCN(Cc2nc3ccccc3[nH]2)CC1 [Example 20, 2-[4-(1H-benzimidazol-2-ylmethyl)piperazin-1-yl]phenol]
melting point: 208 to 216 °C

N#Cc1ccccc1N1CCN(Cc2nc3ccccc3[nH]2)CC1 [Example 12, 2-[4-(1H-benzimidazol-2-ylmethyl)piperazin-1-yl]benzonitrile]
melting point: 236 to 237 °C

CN1CCc2cccc3c2[C@H]1Cc1ccc(O)c(O)c1-3 [Apomorphine, (6aR) 5,6,6a,7-tetrahydro-6-methyl-4H-dibenzo[de,g]quinoline-10,11-diol, reference compound]
incidence of rat penile erections (Wistar rats; positive control of Table 1, dose 0.1 μmol/kg): 83% | incidence of rat penile erections (Wistar rats; positive control of Table 2, dose 0.1 μmol/kg): 93%

c1ccc(N2CCN(Cc3nc4ccccc4[nH]3)CC2)nc1 [2-[(4-pyridin-2-ylpiperazin-1-yl)methyl]-1H-benzimidazole]
Induced Penile Erection in Rats, Incidence (%) (Wistar rats; dose 0.003 μmol/kg, Table 1): 25% | Induced Penile Erection in Rats, Incidence (%) (Wistar rats; dose 0.01 μmol/kg, Table 1): 50% | Induced Penile Erection in Rats, Incidence (%) (Wistar rats; dose 0.03 μmol/kg, Table 1): 83% | Induced Penile Erection in Rats, Incidence (%) (Wistar rats; dose 0.10 μmol/kg, Table 1): 58% | induced penile erections in rats (significance) (Wistar rats): statistically significant | emesis in ferrets (in words) (Male Fitch ferrets): did not induce emesis

Fc1ccccc1N1CCN(Cc2nc3ccccc3[nH]2)CC1 [Example 14, 2-{[4-(2-fluorophenyl)piperazin-1-yl]methyl}-1H-benzimidazole]
melting point: 262 to 264 °C

O=C(N1CCCC1)n1c(CN2CCN(c3ccccn3)CC2)nc2ccccc21 [Example 9, 2-[(4-pyridin-2-ylpiperazin-1-yl)methyl]-1-(pyrrolidin-1-ylcarbonyl)-1H-benzimidazole]
melting point: 120 to 121 °C

C[C@H]1CN(c2ccccn2)CCN1Cc1nc2ccccc2[nH]1 [Example 25, 2-{[(2S)-2-methyl-4-pyridin-2-ylpiperazin-1-yl]methyl}-1H-benzimidazole]
melting point: 149 to 151 °C

Oc1ccc(N2CCN(Cc3nc4ccccc4[nH]3)CC2)cc1 [Example 17, 4-[4-(1H-benzimidazol-2-ylmethyl)piperazin-1-yl]phenol]
melting point: 206 to 209 °C

CSc1ccccc1N1CCN(Cc2nc3ccccc3[nH]2)CC1 [Example 18, 2-({4-[2-(methylthio)phenyl]piperazin-1-yl}methyl)-1H-benzimidazole]
melting point: 214 to 216 °C

CCOc1ccccc1N1CCN(Cc2nc3ccccc3[nH]2)CC1 [Example 19, 2-{[4-(2-ethoxyphenyl)piperazin-1-yl]methyl}-1H-benzimidazole]
melting point: 95 to 100 °C

c1cnc(N2CCN(Cc3nc4ccccc4[nH]3)CC2)nc1 [Example 2, 2-[(4-pyrimidin-2-ylpiperazin-1-yl)methyl]-1H-benzimidazole]
melting point: 198 to 200 °C

CC1CN(c2ccccn2)CCN1Cc1nc2ccccc2[nH]1 (stereo not drawn) [Example 24, 2-[(2-methyl-4-pyridin-2-ylpiperazin-1-yl)methyl]-1H-benzimidazole]
melting point: 207 to 209 °C

c1ccc2[nH]c(CN3CCN(c4nccs4)CC3)nc2c1 [Example 7, 2-{[4-(1,3-thiazol-2-yl)piperazin-1-yl]methyl}-1H-benzimidazole]
melting point: 203 to 205 °C

Oc1ccc(N2CCN(Cc3nc4ccccc4[nH]3)CC2)nc1 [6-[4-(1H-benzimidazol-2-ylmethyl)piperazin-1-yl]pyridin-3-ol]
Induced Penile Erection in Rats, Incidence (%) (Wistar rats; dose 0.01 μmol/kg, Table 2): 42% | Induced Penile Erection in Rats, Incidence (%) (Wistar rats; dose 0.03 μmol/kg, Table 2): 58% | Induced Penile Erection in Rats, Incidence (%) (Wistar rats; dose 0.1 μmol/kg, Table 2): 58% | Induced Penile Erection in Rats, Incidence (%) (Wistar rats; dose 0.3 μmol/kg, Table 2): 33% | induced penile erections in rats (significance) (Wistar rats): statistically significant | melting point: 144 to 145 °C

CN(C)C(=O)n1c(CN2CCN(c3ccccn3)CC2)nc2ccccc21 [Example 10, N,N-dimethyl-2-[(4-pyridin-2-ylpiperazin-1-yl)methyl]-1H-benzimidazole-1-carboxamide]
melting point: 174 to 176 °C

C[C@@H]1CN(c2ccccn2)CCN1Cc1nc2ccccc2[nH]1 [Example 26, 2-{[(2R)-2-methyl-4-pyridin-2-ylpiperazin-1-yl]methyl}-1H-benzimidazole]
melting point: 151 to 153 °C

N#Cc1cccnc1N1CCN(Cc2nc3ccccc3[nH]2)CC1 [Example 4, 2-[4-(1H-benzimidazol-2-ylmethyl)piperazin-1-yl]nicotinonitrile]
melting point: 208 to 210 °C

Fc1cccnc1N1CCN(Cc2nc3ccccc3[nH]2)CC1 [Example 28, 2-{[4-(3-fluoropyridin-2-yl)piperazin-1-yl]methyl}-1H-benzimidazole]
melting point: 210 to 212 °C
